This is an account of results in US20110178110A1, “Genotype and Expression Analysis for Use in Predicting Outcome and Therapy Selection” (University of Southern California, priority 2008, published 2011).

The subject of one experiment is stage II colon cancer. The experiment in a line: Tumor recurrence in stage II colon cancer patients treated with 5-FU based adjuvant chemotherapy. Type of experiment: in vivo, human. How it is done: Methods: Blood specimens from 107 patients (median age of 60 years; range: 22-86) were obtained at the University of Southern California medical facilities. All patients were diagnosed with high-risk, lymph node negative, stage II colon cancer and were uniformly treated with 5-FU based adjuvant chemotherapy. The median follow-up was 4.8 years (range: 0.3-16.8). […] Genomic DNA was extracted from peripheral blood and genotypes were determined using PCR-RFLP.

The subject of experiment [1] is metastatic adenocarcinoma of the colon or rectum. The settings on record: individuals with serum LDH more than 1.5 times the upper limit of normal; interim data; cited from earlier work.

`O=c1[nH]cc(F)c(=O)[nH]1` [5-FU, Fluorouracil]: the “Probability ± SE of 3-year recurrence” value with stage II colon cancer came out at 0.29 ± 0.06. For the same compound, the “Median time to recurrence (TTR) (95% CI)” value in the experiment on stage II colon cancer (by adjuvant therapy) is given as 9.4 (4.8, 16.8+) yrs. As to `Clc1ccc(Nc2nnc(Cc3ccncc3)c3ccccc23)cc1.O=C(O)CCC(=O)O` [PTK/ZK, 1-[4-Chloroanilino]-4-[4-pyridylmethyl]phthalazine Succinate], the “clinical benefit when PTK/ZK was added to FOLFOX4, compared to FOLFOX4 plus placebo” value in experiment [1] was “greater clinical benefit”.
